Source: patent US20220298174A1, “TETRACYCLIC COMPOUND, PREPARATION METHOD THEREFOR AND USE THEREOF” (SHANGHAI JEMINCARE PHARMACEUTICALS CO., LTD, priority 2019, published 2022)
pIC50: −log10 of the molar value. Read-outs that look alike come from different tables or passages of the source.

Experiments:
Type in all cases: cell-based
[1] = system: pERK (Thr202/Tyr204) in NCI-H358 cells expressing mutant RAS (G12C); test: Inhibition of RAS-mediated signal transduction: p-ERK ELISA normalized to Janus green; conditions: for pIC50: NCI-H358 cells, 2 hours of treatment, ELISA, read-out: p-ERK IC50 (NCI H358)
Description: NCI-H358 cells (ATCC accession No. CRL-5807) expressing mutant RAS (G12C) were cultured in an RPMI medium containing 10% fetal bovine serum, penicillin/streptomycin double antibody. The cells were plated on to a 96-well plate (Corning Cat. No. 3699) at 40,000 cells per well and left standing overnight to adhere to the bottom of the plate. The cells were treated with or without the compounds of the present disclosure (dimethylsulfoxide, DMSO), with a final DMSO concentration of 0.5% ensured. After 2 hours of treatment, the medium was removed, and 4% paraformaldehyde (Beyotime Cat. No. E672002-0100) was added. The resulting mixture was left standing for 20 min. After being immobilized, the cells were washed with PBS and incubated with pre-cooled methanol for 10 min to permeabilize the cell membrane. Non-specific antibody binding was blocked by incubation for 1 h with 1× blocking buffer (Thermo Cat. No. 37520).
The ERK phosphorylation level was detected by enzyme-linked immunosorbent assay (ELISA). A phospho-ERK antibody (Cell Signal Technology Cat. No. 4370) was 1:400 diluted with 1× blocking solution containing 0.05% tween 20 and added to the 96-well plate for overnight incubation at 4° C. The plate was washed 5 times with PBS containing 0.05% tween 20. An HRP-conjugated secondary antibody (Thermo Cat. No. 31460) was 1:10,000 diluted with 1× blocking buffer containing 0.05% tween 20 and added to the 96-well plate for incubation for 2 h at room temperature. The plate was washed 5 times with PBS containing 0.05% Tween and incubated with TMB (Thermo Cat. No. 4816) at room temperature for 15 min. The reaction was terminated with 1 mol/L H2SO4, and the OD values were read at a wavelength of 450 nm using an EnVision (PerkinElmer).
The total number of cells per well was measured using the Janus green staining method. The 96-well plate after the detection of the ERK phosphorylation level was washed to colorlessness with PBS and incubated with 0.1% Janus green (Abcam Cat. No. ab111622) for 10 min. After washing with double distilled water, the plate was incubated with 0.1 mol/L HCl with shaking for 10 min. The OD values were read at a wavelength of 595 nm using an EnVision (PerkinElmer).
The signal values of pERK (Thr202/Tyr204) were normalized using the signal values of Janus green, and the inhibition percentages relative to the DMSO reference were calculated after treatment with the drugs. The percentage values were subjected to four-parameter dose response curve fitting to generate IC50 values.

[2] = system: NCI-H358 cells expressing KRAS-G12C; test: Cell proliferation assay (Cell Titer Glo), NCI-H358; conditions: Homo sapiens, 72 h, ATP content (Cell Titer Glo)
Description: (§1) The ability of the compounds of the present disclosure to inhibit the growth of KRAS-G12C-expressing cells was assessed by measuring cell viability and calculating GI50 values.
(§2) Tumor cell line NCI-H358 (ATCC accession No. CRL-5807) expressing KRAS-G12C was cultured in an RPMI medium supplemented with 10% fetal bovine serum and penicillin/streptomycin double antibody; tumor cell line MIA PaCa2 (ATCC CRL-1420) expressing KRAS-G12C was cultured in a DMEM medium supplemented with 10% fetal bovine serum, 2.5% horse serum and penicillin/streptomycin double antibody.
(§3) NCI-H358 and MIA-Paca2 cells were seeded on a black clear-bottom 384-well plate (PerkinElmer Cat. No. 6007460) at densities of 1000 and 800 cells, respectively, and allowed to adhere to the walls overnight (8-12 h). After the cells adhered to the walls, the diluted compounds of the present disclosure with a concentration that was 5 times that of the working solution (containing 0.1% dimethyl sulfoxide, namely DMSO, at the final concentration) was added to the experimental groups; the same dilution (containing 0.1% DMSO at the final concentration) as in the experimental groups was added to the control group. After 72 h, the amount of cell proliferation was measured by measuring ATP content using a Cell Titer Glo reagent (Promega Cat. No. G7572) according to the method described in the manuals. Steps are briefly as follows: the cell plate was taken out and equilibrated at normal temperature for 30 min; the Cell Titer Glo reagent with an equal volume to that of the culture was added; the culture plate was placed on a shaker for lysis for 2 min; the culture plate was left standing at normal temperature for 10 min; the optical signal values were read using a microplate reader EnVision (PerkinElmer).
(§4) The inhibition percentages were calculated from the data of the experimental groups relative to the DMSO group, and GI50 was calculated using the data processing software GraphPad by analyzing the inhibitory rates yielded by 9 dosing concentrations produced by 1:3 dilution of the compounds, with the results shown in Table 2.

[3] = system: MIA PaCa2 cells expressing KRAS-G12C; test: Cell proliferation assay (Cell Titer Glo), MIA PaCa2; conditions: Homo sapiens, MIA PaCa-2, 72 h, ATP content (Cell Titer Glo)
Description: as §1, §2, §3, §4

| Compound | GI50 [2] | GI50 [3] | pIC50 ([1]; Homo sapiens, NCI-H358, 2 h) | IC50 ([1]; Homo sapiens, NCI-H358, 2 h, read-out: p-ERK IC50 (NCI H358, μM)) | pIC50 [1] |
| --- | --- | --- | --- | --- | --- |
| C=CC(=O)N1CCN2c3nc(=O)n(-c4c(C)ccnc4C(C)C)c4cc(-c5c(C)ccc6[nH]ncc56)c(F)c(c34)OC[C@H]2C1 (atropisomer, axis not shown) [Compound 6A] |  |  | 5.75 |  |  |
| C=CC(=O)N1CCN2c3nc(=O)n(-c4c(C)ccnc4C(C)C)c4cc(-c5c(N)c(Cl)cc(Cl)c5F)c(F)c(c34)OC[C@H]2C1 (atropisomer, axis not shown) [Compound 11A] | 70 nM | 685 nM | 7.28 |  |  |
| C=CC(=O)N1CCN(c2ncnc3c(F)c(-c4c(O)cccc4F)c(Cl)cc23)CC1 [ARS-1620] | 510 nM | 1210 nM |  | 0.325 µM |  |
| C=CC(=O)N1CCN2c3nc(=O)n(-c4c(C)ccnc4C(C)C)c4cc(-c5c(O)cccc5F)c(F)c(c34)OC[C@@H]2C1 [Compound 1A] |  |  |  |  | 6.21 |
| C=CC(=O)N1CCN2c3nc(=O)n(-c4c(C)ccnc4C(C)C)c4cc(-c5c(O)cccc5F)c(F)c(c34)OC[C@@H]2C1 [Compound 1] |  |  |  |  | 6.54 |
| C=CC(=O)N1CCN2c3nc(=O)n(-c4c(C)ccnc4C(C)C)c4cc(-c5c(O)cccc5F)c(F)c(c34)OC[C@H]2C1 [Compound 2] |  |  |  |  | 7.00 |
| C=CC(=O)N1CCN2c3nc(=O)n(-c4c(C)ccnc4C(C)C)c4c(F)c(-c5c(O)cccc5F)nc(c34)OC[C@@H]2C1 [Compound 3] |  |  | 6.19 |  |  |
| C=C(F)C(=O)N1CCN2c3nc(=O)n(-c4c(C)ccnc4C(C)C)c4cc(-c5c(O)cccc5F)c(F)c(c34)OC[C@H]2C1 [Compound 5A] |  |  | 6.20 |  |  |
| C=CC(=O)N1CCN2c3nc(=O)n(-c4c(C)ccnc4C(C)C)c4cc(-c5c(F)ccc6cc[nH]c(=O)c56)c(F)c(c34)OC[C@H]2C1 [Compound 14A] |  |  | < 5.00 |  |  |

Second part, led by results:

| GI50 [2] | GI50 [3] | Compound | pIC50 ([1]; Homo sapiens, NCI-H358, 2 h) | IC50 ([1]; Homo sapiens, NCI-H358, 2 h, read-out: p-ERK IC50 (NCI H358, μM)) | pIC50 [1] |
| --- | --- | --- | --- | --- | --- |
| 34 nM | 324 nM | C=CC(=O)N1CCN2c3nc(=O)n(-c4c(C)ccnc4C(C)C)c4cc(-c5c(O)ccc(F)c5F)c(F)c(c34)OC[C@H]2C1 (atropisomer, axis not shown) [Compound 4A] | 7.42 |  |  |
| 133 nM | 629 nM | C=CC(=O)N1CCN2c3nc(=O)n(-c4c(C)ccnc4C(C)C)c4nc(-c5c(O)cccc5F)c(F)c(c34)OC[C@H]2C1 (atropisomer, axis not shown) [Compound 7A] | 6.71 |  |  |
| 111 nM | 333 nM | C=CC(=O)N1CCN2c3nc(=O)n(-c4c(C)ccnc4C(C)C)c4c(F)c(-c5c(O)cccc5F)nc(c34)OC[C@H]2C1 (atropisomer, axis not shown) [Compound 10A] | 7.19 |  |  |
| 3430 nM | 4520 nM | C=CC(=O)N1CCN2c3nc(=O)n(-c4c(C)ccnc4C(C)C)c4c(F)c(-c5c(O)cccc5F)c(F)c(c34)OC[C@H]2C1 (atropisomer, axis not shown) [Compound 15A] | 5.20 |  |  |
| 350 nM | 304 nM | C=CC(=O)N1C[C@@H]2COc3c(F)c(-c4c(O)cccc4F)nc4c3c(nc(=O)n4-c3c(C)ccnc3C(C)C)N2[C@@H](C)C1 (single isomer, unassigned) [Compound 8A] | 6.59 |  |  |
| 29 nM | 48 nM | C=CC(=O)N1CCN2c3nc(=O)n(-c4c(C)ccnc4C(C)C)c4cc(-c5c(O)cccc5F)c(F)c(c34)OC[C@H]2C1 [Compound 2A] | 7.28 |  |  |
| 10 nM | 54 nM | C=CC(=O)N1CCN2c3nc(=O)n(-c4c(C)ccnc4C(C)C)c4cc(-c5c(N)cccc5F)c(F)c(c34)OC[C@H]2C1 [Compound 12A] | 7.49 |  |  |
| 320 nM | 1270 nM | C=CC(=O)N1CCN(c2nc(=O)n(-c3c(C)ccnc3C(C)C)c3c(F)c(-c4c(O)cccc4F)ncc23)[C@@H](C)C1 [Compound 13] | 6.80 |  |  |
